Data taken from patent publication US20240034717A1, “NOVEL POTASSIUM CHANNEL INHIBITORS” (Saniona A/S, priority 2020, published 2024).

Target: erythrocyte KCa3.1 channels (Homo sapiens (Human), UniProt O15554)
Experiment: Erythrocyte KCa3.1 assay
Assay type: cell-based
Details: human erythrocytes, A23187-activated KCa3.1; read-out: RBC K (in vitro) Human IC50 (μM) Potency category
Experimental: Human blood was drawn from healthy human volunteers in a standard heparinized blood sampling vial (Vacutainer, Li/heparin, ED Bioscience, Plymouth, UK). The erythrocytes were packed by centrifugation, and the plasma and buffy coat were removed by aspiration. Erythrocytes were washed three times in the experimental salt solution and then stored at 0° C. until use. Blood samples from NMRI mice or from Wistar rats were treated similarly. The methodological principle is outlined in Macey et al. (1978) and further described in Strøbaek et al. (2013). Activation of the erythrocyte KCa3.1 channels were obtained by addition of the Ca^2+ ionophore A23187, which causes synchronized hyperpolarization, which is reported as a CCCP-mediated shift in the unbuffered extracellular pH of the erythrocyte suspension. Standard procedure: 3 mL unbuffered experimental salt solution (in mM: 2 KCl, 154 NaCl, 0.05 CaCl2) was heated to 37° C. with stirring. Packed erythrocytes were added (50 μL, final cytocrit 1.5%), and the extracellular pH (pHo) followed with a glass/calomel (pHG200-8/REF200, Radiometer, Denmark) electrode pair. CCCP (3 μL, final concentration 20 μM) was added followed by varying concentrations of test compounds (DMSO concentration constant). After pH stabilization at ˜7.2, A23187 (3 μL, final concentration 0.33 μM) was added to initiate the experiment. After the peak hyperpolarization was attained, the intracellular pH (pHi constant during the experiment) was found by haemolysing the erythrocytes via addition of 100 μL of Triton-X100.
The erythrocyte membrane potential, Vm, was calculated according to: […]
and the fractional remaining Ca^2+-activated K^+-conductance at the concentration C of blocker, fGK(C), was calculated from
where the K^+ equilibrium potential EK=−107 mV, the Cl^− equilibrium potential ECl=−12 mV and the Vm(0) and Vm(C) are the peak hyperpolarizations in the control and in the presence of a concentration of C of blocker respectively.
IC50 values for compounds were calculated from a plot of fGK(C) versus C by a fit to the Hill equation, using a custom program written in the IGOR-Pro software (WaveMetrics, Lake Oswego, OR, USA). All IC50-values are reported in μM.

Structure (SMILES) | IC50
CC(C)(N)CNC1(c2cccc(Cl)c2)CCC1 [N1-[1-(3-chlorophenyl)cyclobutyl]-2-methylpropane-1,2-diamine] | < 0.3 µM
COC(=O)N(CCN)C1(c2ccc(F)c(C(F)(F)F)c2)CC1 [Methyl (2-aminoethyl)(1-(4-fluoro-3-(trifluoromethyl)phenyl)cyclopropyl)carbamate] | < 1 µM
Fc1ccc(C2(NC[C@H]3CCCN3)CCC2)cc1C(F)(F)F [1-[4-fluoro-3-(trifluoromethyl)phenyl]-N-{[(2R)-pyrrolidin-2-yl]methyl}cyclobutan-1-amine] | < 1 µM
FC(F)(F)Oc1cccc(C2(NC[C@@H]3CCCN3)CCC2)c1 [N-{[(2S)-pyrrolidin-2-yl]methyl}-1-[3-(trifluoromethoxy)phenyl]cyclobutan-1-amine] | < 1 µM
COC(=O)N(CC(C)(C)N)C1(c2ccc(F)c(C(F)(F)F)c2)CCC1 [methyl N-(2-amino-2-methylpropyl)-N-{1-[4-fluoro-3-(trifluoromethyl)phenyl]cyclobutyl}carbamate] | < 0.3 µM
CC(C)(N)CN(C1CCC1)C1(c2cccc(C(F)(F)F)c2)CC1 [N1-cyclobutyl-2-methyl-N1-(1-(3-(trifluoromethyl)phenyl)cyclopropyl)propane-1,2-diamine] | < 0.3 µM
Fc1ccc(C2(NC[C@H]3CCCN3)CCC2)cc1C1CC1 [1-(3-cyclopropyl-4-fluorophenyl)-N-{[(2R)-pyrrolidin-2-yl]methyl}cyclobutan-1-amine] | < 1 µM
COC(=O)N(C1CNC1)C1(c2ccc(F)c(C(F)(F)F)c2)CC1 [Methyl azetidin-3-yl(1-(4-fluoro-3-(trifluoromethyl)phenyl)cyclopropyl)carbamate] | < 1 µM
CS(=O)(=O)N(CC1(N)CC1)C1(c2ccc(F)c(C(F)(F)F)c2)CC1 [N-((1-aminocyclopropyl)methyl)-N-(1-(4-fluoro-3-(trifluoromethyl)-phenyl)cyclopropyl)methanesulfonamide] | < 1 µM
COC(=O)N(CC(C)(C)N)C1(c2cc(F)cc(C(F)(F)F)c2)CCC1 [Methyl N-(2-amino-2-methylpropyl)-N-{1-[3-fluoro-5-(trifluoromethyl)phenyl]cyclobutyl}carbamate] | < 0.3 µM
Fc1ccc(C2(NC[C@@H]3CCCN3)CCC2)cc1C(F)(F)F [1-[4-fluoro-3-(trifluoromethyl)phenyl]-N-{[(2S)-pyrrolidin-2-yl]methyl}cyclobutan-1-amine] | < 0.3 µM
COC(=O)N(C[C@@H]1COCCN1C)C1(c2ccc(F)c(C(F)(F)F)c2)CC1 [Methyl (R)-(1-(4-fluoro-3-(trifluoromethyl)phenyl)cyclopropyl)((4-methylmorpholin-3-yl)methyl)carbamate] | < 0.3 µM
CC(C)(N)CNC1(c2cccc(C(F)(F)F)c2)CCC1 [2-methyl-N1-{1-[3-(trifluoromethyl)phenyl]cyclobutyl}propane-1,2-diamine] | < 0.3 µM
FC(F)(F)Oc1cccc(C2(NC[C@H]3CCCN3)CCC2)c1 [N-{[(2R)-pyrrolidin-2-yl]methyl}-1-[3-(trifluoromethoxy)phenyl]cyclobutan-1-amine] | < 1 µM
Fc1ccc(C2(NC[C@@H]3CCCN3)CCC2)cc1C1CC1 [1-(3-cyclopropyl-4-fluorophenyl)-N-{[(2S)-pyrrolidin-2-yl]methyl}cyclobutan-1-amine] | < 1 µM
Fc1cc(C(F)(F)F)cc(C2(NC[C@H]3CCCN3)CCC2)c1 [1-[3-fluoro-5-(trifluoromethyl)phenyl]-N-{[(2R)-pyrrolidin-2-yl]methyl}cyclobutan-1-amine] | < 1 µM
COC(=O)N(CC(C)(C)N)C1(c2cccc(OC(F)(F)F)c2)CCC1 [Methyl N-(2-amino-2-methylpropyl)-N-{1-[3-(trifluoromethoxy)phenyl]cyclobutyl}carbamate] | < 0.3 µM
CS(=O)(=O)N(C[C@H]1CCCN1)C1(c2ccc(F)c(C(F)(F)F)c2)CC1 [(R)-N-(1-(4-fluoro-3-(trifluoromethyl)phenyl)cyclopropyl)-N-(pyrrolidin-2-ylmethyl) methane sulfonamide] | < 1 µM
CC(C)(N)CNC1(c2ccc(F)c(C(F)(F)F)c2)CCC1 [N1-{1-[4-fluoro-3-(trifluoromethyl)phenyl]cyclobutyl}-2-methylpropane-1,2-diamine] | < 0.3 µM
COC(=O)N(CC(C)(C)N)C1(c2cc(Cl)ccc2F)CCC1 [Methyl N-(2-amino-2-methylpropyl)-N-[1-(5-chloro-2-fluorophenyl)cyclobutyl]carbamate] | < 1 µM

Second part, the compound after the results:

IC50 | Structure (SMILES)
< 0.3 µM | COC(=O)N(CC(C)(C)N)C1(c2cccc(C(F)(F)F)c2)CCC1 [methyl N-(2-amino-2-methylpropyl)-N-{1-[3-(trifluoromethyl)phenyl]cyclobutyl}carbamate]
< 0.3 µM | COC(=O)N(C[C@@H]1CCCN1)C1(c2cccc(C(F)(F)F)c2)CCC1 [methyl N-{[(2S)-pyrrolidin-2-yl]methyl}-N-{1-[3-(trifluoromethyl)phenyl]cyclobutyl}carbamate]
< 0.3 µM | COC(=O)N(C[C@@H]1CCCN1)C1(c2cccc(Cl)c2)CCC1 [Methyl N-[1-(3-chlorophenyl)cyclobutyl]-N-{[(2S)-pyrrolidin-2-yl]methyl}carbamate]
< 0.3 µM | COC(=O)N(C[C@@H]1CCCN1)C1(c2ccc(F)c(C(F)(F)F)c2)CCC1 [methyl N-{1-[4-fluoro-3-(trifluoromethyl)phenyl]cyclobutyl}-N-{[(2S)-pyrrolidin-2-yl]methyl}carbamate]
< 0.3 µM | COC(=O)N(C[C@H]1CCCN1)C1(c2cccc(C(F)(F)F)c2)CCC1 [methyl N-{[(2R)-pyrrolidin-2-yl]methyl}-N-{1-[3-(trifluoromethyl)phenyl]cyclobutyl}carbamate]
< 0.3 µM | COC(=O)N(C[C@@H]1CCCN1)C1(c2cc(F)cc(C(F)(F)F)c2)CCC1 [Methyl N-{1-[3-fluoro-5-(trifluoromethyl)phenyl]cyclobutyl}-N-{[(2S)-pyrrolidin-2-yl]methyl}carbamate]
< 0.3 µM | COC(=O)N(C[C@H]1CCCN1)C1(c2cccc(OC(F)(F)F)c2)CCC1 [Methyl N-{[(2R)-pyrrolidin-2-yl]methyl}-N-{1-[3-(trifluoromethoxy)phenyl]cyclobutyl}carbamate]
< 1 µM | FC(F)(F)c1cccc(C2(NC[C@H]3CCCN3)CCC2)c1 [N-{[(2R)-pyrrolidin-2-yl]methyl}-1-[3-(trifluoromethyl)phenyl]cyclobutan-1-amine]
< 0.3 µM | COC(=O)N(C[C@@H]1CCCN1)C1(c2cccc(OC(F)(F)F)c2)CCC1 [Methyl N-{[(2S)-pyrrolidin-2-yl]methyl}-N-{1-[3-(trifluoromethoxy)phenyl]cyclobutyl}carbamate]
< 1 µM | COC(=O)N(C[C@@H]1CCCN1)C1(c2cc(Cl)ccc2F)CCC1 [Methyl N-[1-(5-chloro-2-fluorophenyl)cyclobutyl]-N-{[(2S)-pyrrolidin-2-yl]methyl}carbamate]
< 0.3 µM | COC(=O)N(C[C@H]1CCCN1)C1(c2cccc(Cl)c2)CCC1 [Methyl N-[1-(3-chlorophenyl)cyclobutyl]-N-{[(2R)-pyrrolidin-2-yl]methyl}carbamate]
< 0.3 µM | COC(=O)N(C[C@H]1CCCN1)C1(c2ccc(F)c(C(F)(F)F)c2)CCC1 [methyl N-{1-[4-fluoro-3-(trifluoromethyl)phenyl]cyclobutyl}-N-{[(2R)-pyrrolidin-2-yl]methyl}carbamate]
< 0.3 µM | COC(=O)N(C[C@H]1CCCN1)C1(c2cc(F)cc(C(F)(F)F)c2)CCC1 [Methyl N-{1-[3-fluoro-5-(trifluoromethyl)phenyl]cyclobutyl}-N-{[(2R)-pyrrolidin-2-yl]methyl}carbamate]
< 0.3 µM | O=C(OCC1CC1)N(C[C@@H]1CCCN1)C1(c2ccc(F)c(C(F)(F)F)c2)CC1 [Cyclopropylmethyl (S)-(1-(4-fluoro-3-(trifluoromethyl)phenyl)cyclopropyl)(pyrrolidin-2-ylmethyl)carbamate]
< 1 µM | COC(=O)N(C[C@@H]1CCCN1)C1(c2cc(C(F)(F)F)ccc2F)CCC1 [Methyl N-{1-[2-fluoro-5-(trifluoromethyl)phenyl]cyclobutyl}-N-{[(2S)-pyrrolidin-2-yl]methyl}carbamate]
< 1 µM | COC(=O)N(C[C@@H]1COCCN1)C1(c2ccc(F)c(C(F)(F)F)c2)CC1 [Methyl (R)-(1-(4-fluoro-3-(trifluoromethyl)phenyl)cyclopropyl)(morpholin-3-ylmethyl) carbamate]
< 1 µM | FC(F)(F)c1cccc(C2(NC[C@@H]3CCCN3)CCC2)c1 [N-{[(2S)-pyrrolidin-2-yl]methyl}-1-[3-(trifluoromethyl)phenyl]cyclobutan-1-amine]
